This test deals with L1210 leukemia ip in BDF1 mice, survival T/C. As to the kind of experiment: NCI In Vivo Anticancer Drug Screen. Data for tumor model L1210 Leukemia (intraperitoneal) in B6D2F1 (BDF1) mice. Conditions: endpoint: mean survival time, higher = longer survival. The procedure, abridged:
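Transplanted-tumor mice were given test agent; controls received vehicle only. Survival readings from the two groups were divided (treated over control).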

[1] abbreviates: dose: 50.0 mg/kg/injection, schedule: Q01DX009 (ip), vehicle: saline.
Where [2] appears, read: dose: 100.0 mg/kg/injection, schedule: Q01DX009 (ip), vehicle: saline.
The mark [3] stands for this setting: dose: 100.0 mg/kg/injection, schedule: Q04DX003 (ip), vehicle: saline.
The mark [4] stands for this setting: dose: 200.0 mg/kg/injection, schedule: Q01DX009 (ip), vehicle: saline.
The mark [5] stands for this setting: dose: 200.0 mg/kg/injection, schedule: Q04DX003 (ip), vehicle: saline.
Setting [6] is: dose: 12.5 mg/kg/injection, schedule: Q04DX003 (ip), vehicle: saline.
The mark [7] stands for this setting: dose: 100.0 mg/kg/injection, schedule: Q01DX001 (ip), vehicle: carboxymethylcellulose (CMC).
The mark [8] stands for this setting: dose: 200.0 mg/kg/injection, schedule: Q01DX001 (ip), vehicle: carboxymethylcellulose (CMC).

“And” between values parts separate entries of the source, which are not always exact repeats. Identical values can stand only once. Inconclusive results and toxic doses are left out.

The text below walks through data of PubChem BioAssay AID248 (DTP/NCI, 2004).

Regarding `CCn1c2ccccc2c2c(C)c3cnccc3c(C)c21`, the T/C is, setting by setting: (dose: 37.5 mg/kg/injection, schedule: Q04DX003 (ip), vehicle: saline) 94 % of control; (dose: 62.5 mg/kg/injection, schedule: Q01DX009 (ip), vehicle: saline with Tween-80) 193 % of control; (dose: 75.0 mg/kg/injection, schedule: Q04DX003 (ip), vehicle: saline) 90 % of control; (dose: 125.0 mg/kg/injection, schedule: Q01DX009 (ip), vehicle: saline with Tween-80) 101 % of control; (dose: 150.0 mg/kg/injection, schedule: Q04DX003 (ip), vehicle: saline) 92 % of control; (dose: 250.0 mg/kg/injection, schedule: Q01DX009 (ip), vehicle: saline with Tween-80) 105 % of control. Also, the T/C (dose: 300.0 mg/kg/injection, schedule: Q04DX003 (ip), vehicle: saline) is 94 % of control.
`CSc1nc(O)c(-c2ccccc2)c(=O)[nH]1`: the T/C (dose: 100.0 mg/kg/injection, schedule: Q01DX Z (ip), vehicle: methylcellulose (MC)) was 103 % of control and the T/C (dose: 200.0 mg/kg/injection, schedule: Q01DX Z (ip), vehicle: methylcellulose (MC)) is 101 % of control.
Take `CN1CCC=C(C(=O)N(c2ccccc2)c2ccccc2)C1`: the T/C runs as follows: under setting [1], 106 % of control; under setting [2], 101 % of control; under setting [3], 93 % of control; under setting [4], 97 % of control; under setting [5], 98 % of control.
As for `Cc1ccc(Cl)c(NC(=O)Nc2ccccc2Cl)c1`, the T/C reads like this: (dose: 100.0 mg/kg/injection, schedule: Q01DX009 (ip), vehicle: Klucel (hydroxypropylcellulose) (HPC)) 94 % of control and 90 % of control; (dose: 200.0 mg/kg/injection, schedule: Q01DX009 (ip), vehicle: Klucel (hydroxypropylcellulose) (HPC)) 93 % of control; (dose: 400.0 mg/kg/injection, schedule: Q01DX009 (ip), vehicle: Klucel (hydroxypropylcellulose) (HPC)) 88 % of control and 89 % of control.
Consider `CCCCCCCCCCCCSC1CC(=O)N(c2ccccc2)C1=O` (centres undefined), for which the T/C runs as follows: (dose: 37.5 mg/kg/injection, schedule: Q04DX003 (ip), vehicle: other) 99 % of control and 109 % of control; (dose: 50.0 mg/kg/injection, schedule: Q01DX001 (ip), vehicle: other) 98 % of control and 101 % of control and 104 % of control; (dose: 75.0 mg/kg/injection, schedule: Q04DX003 (ip), vehicle: other) 86 % of control and 89 % of control; (dose: 100.0 mg/kg/injection, schedule: Q04DX002 (ip), vehicle: other) 95 % of control and 89 % of control; (dose: 100.0 mg/kg/injection, schedule: Q04DX003 (ip), vehicle: other) 103 % of control; (dose: 150.0 mg/kg/injection, schedule: Q04DX003 (ip), vehicle: other) 86 % of control and 88 % of control. Moreover, the T/C (dose: 200.0 mg/kg/injection, schedule: Q04DX002 (ip), vehicle: other) was 89 % of control and 92 % of control; the T/C (dose: 200.0 mg/kg/injection, schedule: Q04DX003 (ip), vehicle: other) was 97 % of control; the T/C (dose: 400.0 mg/kg/injection, schedule: Q04DX002 (ip), vehicle: other) was 96 % of control and 89 % of control; the T/C (dose: 400.0 mg/kg/injection, schedule: Q04DX003 (ip), vehicle: other) is 94 % of control.
On to `Cc1cccc(C[As](=O)(O)O)c1`, for which the T/C is 97 % of control (dose: 12.5 mg/kg/injection, schedule: Q04DX003 (ip), vehicle: Klucel (hydroxypropylcellulose) (HPC)) and 111 % of control (dose: 25.0 mg/kg/injection, schedule: Q04DX003 (ip), vehicle: Klucel (hydroxypropylcellulose) (HPC)).
Turning to `COc1ccc2nc3cc(Cl)ccc3c(NCCCCN(C)C)c2c1`, the T/C is 97 % of control (dose: 6.0 mg/kg/injection, schedule: Q04DX003 (ip), vehicle: saline) and 99 % of control under setting [6].
`CCCCCCc1cc(N=Nc2ccc(S(=O)(=O)Nc3cc(C)nc(C)n3)cc2)c(O)cc1O`: the T/C is 101 % of control under setting [7]; 95 % of control under setting [8]; 95 % of control (dose: 400.0 mg/kg/injection, schedule: Q01DX001 (ip), vehicle: carboxymethylcellulose (CMC)).
`CCCCCCCCCC(=O)N1CCCC(C)C1` (centres undefined): the T/C by setting is: (dose: 50.0 mg/kg/injection, schedule: Q01DX001 (ip), vehicle: carboxymethylcellulose (CMC)) 100 % of control; (dose: 50.0 mg/kg/injection, schedule: Q01DX009 (ip), vehicle: carboxymethylcellulose (CMC)) 94 % of control; (dose: 50.0 mg/kg/injection, schedule: Q04DX003 (ip), vehicle: carboxymethylcellulose (CMC)) 101 % of control; under setting [7], 98 % of control; (dose: 100.0 mg/kg/injection, schedule: Q01DX009 (ip), vehicle: carboxymethylcellulose (CMC)) 90 % of control and 91 % of control; (dose: 100.0 mg/kg/injection, schedule: Q04DX002 (ip), vehicle: carboxymethylcellulose (CMC)) 93 % of control and 95 % of control. Further, the T/C is 95 % of control (dose: 100.0 mg/kg/injection, schedule: Q04DX003 (ip), vehicle: carboxymethylcellulose (CMC)); 94 % of control under setting [8]; 89 % of control (dose: 200.0 mg/kg/injection, schedule: Q01DX009 (ip), vehicle: carboxymethylcellulose (CMC)); 101 % of control and 103 % of control (dose: 200.0 mg/kg/injection, schedule: Q04DX002 (ip), vehicle: carboxymethylcellulose (CMC)); 97 % of control (dose: 200.0 mg/kg/injection, schedule: Q04DX003 (ip), vehicle: carboxymethylcellulose (CMC)); 92 % of control (dose: 400.0 mg/kg/injection, schedule: Q04DX002 (ip), vehicle: carboxymethylcellulose (CMC)).
As for `CCN(CC)CCN(C(=O)Cc1cccc2ccccc12)c1ccccc1N`, the T/C is 94 % of control (dose: 19.0 mg/kg/injection, schedule: Q04DX003 (ip), vehicle: acid diluted with saline); 102 % of control (dose: 38.0 mg/kg/injection, schedule: Q04DX003 (ip), vehicle: acid diluted with saline); 105 % of control (dose: 75.0 mg/kg/injection, schedule: Q01DX001 (ip), vehicle: acid diluted with saline); 100 % of control (dose: 75.0 mg/kg/injection, schedule: Q04DX003 (ip), vehicle: acid diluted with saline).
For `C=CCN(C(=O)OCC)P(=O)(OCC)OCC`, the T/C by setting is: (dose: 12.5 mg/kg/injection, schedule: Q01DX009 (ip), vehicle: saline) 102 % of control; under setting [6], 106 % of control; (dose: 25.0 mg/kg/injection, schedule: Q01DX009 (ip), vehicle: saline) 112 % of control; (dose: 25.0 mg/kg/injection, schedule: Q04DX003 (ip), vehicle: saline) 106 % of control; under setting [1], 112 % of control; (dose: 50.0 mg/kg/injection, schedule: Q04DX003 (ip), vehicle: saline) 105 % of control. The T/C reads like this: under setting [3], 112 % of control; under setting [4], 112 % of control; under setting [5], 98 % of control.
Take `COC(=O)c1cc(C)cc(Oc2ccccc2[N+](=O)[O-])c1C`: the T/C reads like this: (dose: 100.0 mg/kg/injection, schedule: Q01DX001 (ip), vehicle: saline) 96 % of control; (dose: 200.0 mg/kg/injection, schedule: Q01DX001 (ip), vehicle: saline) 98 % of control; (dose: 400.0 mg/kg/injection, schedule: Q01DX001 (ip), vehicle: saline) 98 % of control.
Regarding `O=C1c2cccc(O)c2C(=O)c2c(O)cccc21`, the T/C was 94 % of control under setting [2]; 93 % of control under setting [3]; 97 % of control under setting [4]; 97 % of control under setting [5]; 103 % of control (dose: 400.0 mg/kg/injection, schedule: Q01DX009 (ip), vehicle: saline); 97 % of control (dose: 400.0 mg/kg/injection, schedule: Q04DX003 (ip), vehicle: saline).
Consider `CCOC(=O)c1cnc(SC)nc1Nc1ccc(C)cc1`, for which the T/C is 97 % of control (dose: 100.0 mg/kg/injection, schedule: Q04DX003 (ip), vehicle: saline with Tween-80); 91 % of control (dose: 200.0 mg/kg/injection, schedule: Q04DX003 (ip), vehicle: saline with Tween-80); 86 % of control (dose: 400.0 mg/kg/injection, schedule: Q04DX003 (ip), vehicle: saline with Tween-80).
On to `CC1(C)N=C(N)N=C(N)N1c1ccc(OCCCCNC(=O)Nc2cccc(S(=O)(=O)F)c2)c(Cl)c1`, for which the T/C by setting is: (dose: 25.0 mg/kg/injection, schedule: Q01DX009 (ip), vehicle: saline with Tween-80) 100 % of control; (dose: 50.0 mg/kg/injection, schedule: Q01DX009 (ip), vehicle: saline with Tween-80) 108 % of control; (dose: 100.0 mg/kg/injection, schedule: Q01DX009 (ip), vehicle: saline with Tween-80) 116 % of control.
